This is an account of results in the SangsterLogP compilation.

SMILES strings stand for the structures.

`C/C=C/C#CC#CC#C/C=C/C(Cl)CO` (stereo unspecified): the logP was 3.91.
For `OC/C=C/C#CC#Cc1ccccc1`, the logP was 2.48.
For `CC#CC#Cc1ccc(C#CC(Cl)COC(C)=O)s1` (stereo unspecified) the value was 4.6.
For `CC#CC#CC#C/C=C\C(=O)OC` the value was 2.42; for `CC#CC#CC#Cc1ccccc1`, 4.91; for `CC=CC#CC=C1C=CC(=O)O1`, 2.09.
For `C/C=C/C#CC#C/C=C/C(=O)OC` the value was 2.45; for `C=CC#Cc1ccc(-c2cccs2)s1`, 5.15; for `C/C=C/C#CC#Cc1ccccc1`, 4.76.
Take `O=C/C=C/C#CC#Cc1ccccc1`: the logP is 3.09.
Molecule `c1csc(-c2ccc(-c3cccs3)s2)c1` returned a logP of 5.57.

A word on the logP: it is a log measure of how a compound divides between an organic and an aqueous phase. High values mean a more lipophilic compound, low ones a more hydrophilic compound.
